Measurements published in patent US6441006B2, “Pharmaceutical compositions and methods for use” (Targacept, Inc., priority 1998, dated 2002).
Where “and” joins values, the source holds several entries; their conditions need not be identical. Equal entries are not always repeated.

Key:
CNS nicotinic receptors = target: T1, CNS nicotinic receptors (Rattus norvegicus, UniProt P09483+P12390); experiment: Binding to relevant receptor sites; conditions: calculated from IC50 values using the method of Cheng et al.
T1 construct: Ki
T1 sequence (P09483 31-630): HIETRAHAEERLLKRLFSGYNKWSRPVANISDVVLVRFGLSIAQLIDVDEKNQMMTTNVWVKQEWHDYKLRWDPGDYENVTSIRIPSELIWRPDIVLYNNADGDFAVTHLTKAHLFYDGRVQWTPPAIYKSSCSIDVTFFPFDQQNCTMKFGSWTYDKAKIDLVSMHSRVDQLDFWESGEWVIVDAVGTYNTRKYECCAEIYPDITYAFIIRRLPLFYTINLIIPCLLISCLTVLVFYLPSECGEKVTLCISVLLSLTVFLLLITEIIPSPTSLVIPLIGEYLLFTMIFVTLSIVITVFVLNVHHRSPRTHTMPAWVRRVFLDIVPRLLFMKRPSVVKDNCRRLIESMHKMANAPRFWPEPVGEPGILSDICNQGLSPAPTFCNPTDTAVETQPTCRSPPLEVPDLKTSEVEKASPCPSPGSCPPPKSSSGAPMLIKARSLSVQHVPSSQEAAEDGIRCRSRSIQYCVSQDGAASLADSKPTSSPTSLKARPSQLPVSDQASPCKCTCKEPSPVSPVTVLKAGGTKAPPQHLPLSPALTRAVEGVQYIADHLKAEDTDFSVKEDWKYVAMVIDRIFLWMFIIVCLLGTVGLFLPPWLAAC
T1 sequence (P12390 25-500): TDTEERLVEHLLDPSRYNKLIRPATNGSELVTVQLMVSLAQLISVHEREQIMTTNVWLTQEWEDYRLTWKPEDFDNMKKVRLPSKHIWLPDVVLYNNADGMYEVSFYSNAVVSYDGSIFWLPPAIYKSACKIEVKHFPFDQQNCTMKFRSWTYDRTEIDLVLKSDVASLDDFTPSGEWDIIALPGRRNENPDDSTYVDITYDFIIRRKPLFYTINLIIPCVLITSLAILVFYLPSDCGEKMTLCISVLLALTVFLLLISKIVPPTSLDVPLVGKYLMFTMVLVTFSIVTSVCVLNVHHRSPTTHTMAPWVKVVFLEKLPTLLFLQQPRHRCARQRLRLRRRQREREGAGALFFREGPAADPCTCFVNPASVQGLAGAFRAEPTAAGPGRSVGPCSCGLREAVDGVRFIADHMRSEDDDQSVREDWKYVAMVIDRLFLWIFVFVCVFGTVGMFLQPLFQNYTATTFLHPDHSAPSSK
Experimental: Binding of the compounds to relevant receptor sites was determined in accordance with the techniques described in U.S. Pat. No. 5,597,919 to Dull et al. Inhibition constants (Ki values), reported in nM, were calculated from the IC50 values using the method of Cheng et al., Biochem, Pharmacol. 22:3099 (1973).

Rat brain synaptosomes = experiment: Neurotransmitter release from brain synaptosomes; format: biochemical; conditions: in the presence of 10 µM of ligand; percentage of release obtained with 10 µM (S)-(-)-nicotine or 300 µM TMA
Experimental: Neurotransmitter release was measured using techniques similar to those previously published (Bencherif M, et al. JPET 279: 1413-1421, 1996).
Rat brain synaptosomes were prepared as follows: Female Sprague Dawley rats (100-200 g) were killed by decapitation after anesthesia with 70% CO2. Brains are dissected, and hippocampus, striatum, and thalamus isolated, and homogenized in 0.32 M sucrose containing 5 mM HEPES pH 7.4 using a glass/glass homogenizer. The tissue was then centrifuged for 1000×g for 10 minutes and the pellet discarded. The supernatant was centrifuged at 12000×g for 20 minutes. The resultant pellet was re-suspended in perfusion buffer (128 mM NaCl, 1.2 mM KH2PO4, 2.4 mM KCl, 3.2 mM CaCl2, 1.2 mM MgSO4, 25 mM HEPES, 1 mM Ascorbic acid, 0.01 mM pargyline HCl and 10 mM glucose pH 7.4) and centrifuged for 15 minutes at 25000×g. The final pellet was resuspended in perfusion buffer and placed in a water bath (37° C.) for 10 minutes. Radiolabeled neurotransmitter is added (30 L^3H DA, 20 L^3H NE, 10 L^3H glutamate) to achieve a final concentration of 100 nM, vortexed and placed in a water bath for additional 10 minutes. Tissue-loaded filters is placed onto 11-mm diameter Gelman A/E filters on an open-air support. After a 10-minute wash period, fractions are collected to establish the basal release and agonist applied in the perfusion stream. Further fractions were collected after agonist application to re-establish the baseline. The perfusate was collected directly into scintillation vials and released radioactivity was quantified using conventional liquid scintillation techniques. Release of neurotransmitter was determined in the presence of […] of various ligands and was expressedas a percentage of release obtained with a concentration of 10 M (S)-(−)-nicotine or 300 MTMA resulting in maximal effects.

[1] = target: T2, muscle-type nicotinic acetylcholine receptors (Homo sapiens, UniProt P02708+P07510+Q07001); experiment: Interaction with muscle receptors; format: cell-based; conditions: Emax, percentage of maximal activation induced by (S)-(-)-nicotine
T2 construct: endogenous in cells; host or cells: TE671/RD (own knowledge of the cited US 5,597,919)
T2 sequence (P02708 21-457): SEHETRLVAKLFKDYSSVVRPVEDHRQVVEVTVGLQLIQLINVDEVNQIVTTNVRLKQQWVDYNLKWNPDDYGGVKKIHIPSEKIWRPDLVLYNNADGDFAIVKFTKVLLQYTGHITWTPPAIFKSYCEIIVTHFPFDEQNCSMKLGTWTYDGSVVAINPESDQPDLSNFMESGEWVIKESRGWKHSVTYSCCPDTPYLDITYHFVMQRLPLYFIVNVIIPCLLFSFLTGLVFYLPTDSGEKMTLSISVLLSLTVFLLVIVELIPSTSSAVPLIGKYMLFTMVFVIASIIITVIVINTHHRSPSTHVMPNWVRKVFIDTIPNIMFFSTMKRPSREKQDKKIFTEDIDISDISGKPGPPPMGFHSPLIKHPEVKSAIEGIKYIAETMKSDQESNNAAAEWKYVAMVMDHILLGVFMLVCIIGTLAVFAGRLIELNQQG
T2 sequence (P11230 24-501 partner): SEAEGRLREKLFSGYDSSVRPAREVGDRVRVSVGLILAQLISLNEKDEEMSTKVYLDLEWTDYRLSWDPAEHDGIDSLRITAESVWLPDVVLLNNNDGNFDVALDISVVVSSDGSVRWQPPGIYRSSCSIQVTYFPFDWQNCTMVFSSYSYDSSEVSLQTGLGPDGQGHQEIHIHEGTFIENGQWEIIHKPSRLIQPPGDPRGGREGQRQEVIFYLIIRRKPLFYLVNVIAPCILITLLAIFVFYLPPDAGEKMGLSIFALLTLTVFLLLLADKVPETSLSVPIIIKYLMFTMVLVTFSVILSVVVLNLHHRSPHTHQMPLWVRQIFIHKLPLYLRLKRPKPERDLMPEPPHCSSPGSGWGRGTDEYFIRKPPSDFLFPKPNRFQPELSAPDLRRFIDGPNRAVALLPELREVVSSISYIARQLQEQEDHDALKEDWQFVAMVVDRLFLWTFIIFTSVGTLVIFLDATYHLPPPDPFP
T2 sequence (Q07001 22-517): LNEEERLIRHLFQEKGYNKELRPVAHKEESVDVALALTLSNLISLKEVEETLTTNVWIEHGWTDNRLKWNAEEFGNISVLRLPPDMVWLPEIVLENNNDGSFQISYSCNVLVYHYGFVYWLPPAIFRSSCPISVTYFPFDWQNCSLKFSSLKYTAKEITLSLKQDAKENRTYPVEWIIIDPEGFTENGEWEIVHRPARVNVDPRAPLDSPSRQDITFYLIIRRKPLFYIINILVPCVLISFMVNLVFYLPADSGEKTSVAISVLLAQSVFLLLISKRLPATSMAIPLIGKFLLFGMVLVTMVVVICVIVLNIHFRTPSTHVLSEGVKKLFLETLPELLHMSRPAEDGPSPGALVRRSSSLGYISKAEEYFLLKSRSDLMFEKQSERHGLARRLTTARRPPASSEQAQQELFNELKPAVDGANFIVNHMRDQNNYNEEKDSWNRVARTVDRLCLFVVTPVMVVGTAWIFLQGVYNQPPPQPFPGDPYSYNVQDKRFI
T2 sequence (P07510 23-517): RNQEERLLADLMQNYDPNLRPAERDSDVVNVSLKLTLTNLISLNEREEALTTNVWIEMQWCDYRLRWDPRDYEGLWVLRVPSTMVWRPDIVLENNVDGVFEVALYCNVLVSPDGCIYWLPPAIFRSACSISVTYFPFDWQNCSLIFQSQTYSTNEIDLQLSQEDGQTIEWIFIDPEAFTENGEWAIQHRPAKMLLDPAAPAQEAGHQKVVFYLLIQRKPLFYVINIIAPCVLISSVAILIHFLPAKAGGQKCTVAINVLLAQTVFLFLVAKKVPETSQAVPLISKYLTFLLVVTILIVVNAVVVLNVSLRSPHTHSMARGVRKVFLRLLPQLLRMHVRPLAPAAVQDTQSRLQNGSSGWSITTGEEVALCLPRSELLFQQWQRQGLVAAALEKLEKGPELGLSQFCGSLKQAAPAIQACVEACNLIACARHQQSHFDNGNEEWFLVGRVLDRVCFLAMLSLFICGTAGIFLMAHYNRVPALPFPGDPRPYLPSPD
Experimental: (§1) The determination of the interaction of the compounds with muscle receptors was carried out in accordance with the techniques described in U.S. Pat. No. 5,597,919 to Dull et al. The maximal activation for individual compounds (Emax) was determined as a percentage of the maximal activation induced by (S)-(−)-nicotine. Reported Emax values represent the amount released relative to (S)-(−)-nicotine on a percentage basis. […] Such preferable compounds have the capability to activate human CNS receptors without activating muscle-type nicotinic acetylcholine receptors. Thus, there is provided a therapeutic window for utilization in the treatment of CNS disorders. […] The compounds begin to cause muscle effects only when employed in amounts of many times those required to activate dopamine release.

[2] = tested on: ganglia-type nicotinic acetylcholine receptors; experiment: Interaction with ganglion receptors; format: cell-based; conditions: Emax, percentage of maximal activation induced by (S)-(-)-nicotine
Experimental: as §1, with “ganglionic” for “muscle”, “ganglia-type” for “muscle-type”, “cause” for “cause muscle”, “effects at ganglia” for “effects”
The determination of the interaction of the compounds with ganglionic receptors was carried out in accordance with the techniques described in U.S. Pat. No. 5,597,919 to Dull et al. The maximal activation for individual compounds (Emax) was determined as a percentage of the maximal activation induced by (S)-(−)-nicotine. Reported Emax values represent the amount released relative to (S)-(−)-nicotine on a percentage basis.

Compound | Ki (CNS nicotinic receptors) | neurotransmitter release (Rat brain synaptosomes) | effect at muscle sites [1] | effect at ganglia sites [2] | melting point
(2-(5-Bromo(3-pyridylthio))ethyl)methylamine Hemigalactarate [Example 38] | 3400 nM | – | – | – | –
Methyl(3-(5-(phenylmethoxy)(3-pyridyloxy))propyl)amine Hemigalactarate [Example 19] | 2 nM | 38% | 1% | 3% | –
3-(3-Aminopropoxy)phenylamine Hemigalactarate [Example 29] | 442 nM | 14% | – | – | –
Cl.Cl.c1cncc(OC2CCNCC2)c1 [Example 35, 3-(4-Piperidinyloxy)pyridine Dihydrochloride] | – | – | 16% | 9% | 71 to 73.5 °C
Dimethyl(3-(3-(methylamino)propoxy)phenyl)amine Hemigalactarate [Example 31] | 10000 nM | 16% | – | – | –
CN(C)CCOc1cccnc1 [Example 9, Dimethyl(2-(3-pyridyloxy)ethylamine Hemigalactarate] | – | 0% | 0% | 0% | –
Dimethyl(3-(3-pyridyloxy)propyl)amine Hemigalactarate [Example 11] | 126 nM | 32% | 8% | 5% | –
2-(3-Pyridyloxy)ethylamine Hemigalactarate [Example 7] | 1600 nM | 30% | – | – | –
(3-(5-Chloro(3-pyridyloxy))propyl)methylamine Hemigalactarate [Example 16] | 11 nM | 100% | 16% | 7% | –
Methyl(2-(3-pyridyloxy)ethyl)amine Hemigalactarate [Example 8] | 65 nM | 143% | 0% | 0% | –
(3-(5-Chloro(3-pyridyloxy))-1-methylpropyl)methylamine Hemigalactarate [Example 27] | 1600 nM | 30% | – | – | –
Cyclopropyl(3-(3-pyridyloxy)propyl)amine Hemigalactarate [Example 25] | 165 nM | 51% | 9% | 10% | –
Methyl(1-methyl-3-(3-pyridyloxy)propyl)amine Hemigalactarate [Example 26] | 138 nM | 49% | 16% | 20% | –
(3-(3-Aminophenoxy)propyl)methylamine Hemigalactarate [Example 30] | 64 nM | 30% and 60% | 11% | 5% | –
(3-(5-Bromo(3-pyridyloxy))propyl)methylamine Hemigalactarate [Example 6] | 44 nM | – | – | – | –
4-(3-Pyridyloxy)butylamine Hemigalactarate [Example 12] | 232 nM | 100% | 0% | 11% | –
3-(5-Chloro-3-pyridyloxy)propylamine Hemigalactarate [Example 15] | 46 nM | 110% | 0% | 4% | –
Dimethyl(4-(3-pyridyloxy)butyl)amine Hemigalactarate [Example 14] | 3410 nM | 24% | – | – | –
Methyl(3-(5-isopropoxy-3-pyridyloxy)propyl)amine Monogalactarate [Example 18] | 21 nM | 36% | 22% | 0% | –
Methyl(3-tricyclo[7.3.1.0<5,13>]tridec-2-yloxypropyl)amine Hemigalactarate [Example 32] | 100000 nM | – | – | – | –
(3-Benzo[3,4-d]1,3-dioxolan-5-yloxypropyl)methylamine Hemigalactarate [Example 34] | 16600 nM | 41% | – | – | –
Methyl(4-(3-pyridyloxy)butyl)amine Hemigalactarate [Example 13] | 5520 nM | 56% | – | – | –
Ethyl(3-(3-pyridyloxy)propyl)amine Hemigalactarate [Example 22] | 66 nM | 57% | 13% | 13% | –
Methyl(3-(6-methyl(3-pyridyloxy))propyl)amine Hemigalactarate [Example 20] | 12 nM | 77% | 0% | – | –
3-(3-Pyridyloxy)propylamine Hemigalactarate [Example 10] | – | 0% | 0% | 0% | –
Methyl(3-(2-methyl(3-pyridyloxy))propyl)amine Hemigalactarate [Example 21] | 236 nM | 69% | 0% | 15% | –
c1ccc(CNCCCOc2cccnc2)cc1 [Example 24, Benzyl(3-(3-pyridyloxy)propyl)amine] | – | 29% | – | – | –
CC(C)NCCCOc1cccnc1 [Example 23, (Methylethyl)(3-(3-pyridyloxy)propyl)amine] | 8500 nM | 16% | – | – | –
Methyl(3-(3-nitrophenoxy)propyl)amine Hemigalactarate [Example 28] | 392 nM | 67% | 10% | 9% | –
Methyl(3-(5-methoxy-3-pyridyloxy)propyl)amine Hemigalactarate [Example 17] | 15 nM | 54% | 10% | 5% | –
